From patent publication US20200400567A1, “FUSION POLYPEPTIDE” (PEKING UNIVERSITY, priority 2017, published 2020)
“Also recorded” adds a separate entry of the source.

Legend:
[1] = system: human β2 adrenergic receptor; test: GRAB-EPI sensor fluorescence response (ΔF/F0) to ISO, drug perfusion in HEK293T cells; type: cell-based; conditions: GRAB-EPI 1.0 in cells, blocking agent mixed with ISO
Description: (§1) After DNA encoding specific GRAB sensor was introduced into cells by transfection, fluorescence imaging combined with perfusion experiment was. The imaging capture of HEK293T cells was performed using an Olympus IX81 inverted microscope, 40×NA: 1.35 oil lens, 475/28 excitation light filter, and 515LP emission light filter. The optical signal was collected by a Zyla sCMOS DG-152V-Cle FI camera (Andor), and Lambda DG-4 from Sutter Instuments company was used as a fluorescent light source. The exposure time was set to less than 50 ms and the acquisition frequency was 5 seconds. The entire imaging system was overall controlled by micromanager software.
The detection of the response of the GRAB sensor to the ligand (ΔF/F0) was performed using a drug perfusion method. […]
Fluorescence imaging data was processed using ImageJ software. For the performance of GRAB sensors in HEK293T cells and neurons, the fluorescence of entire cell body was selected as the data processing region. For living Drosophila imaging, fluorescence images on the same Z axis were analyzed by ImageJ software. The change in the fluorescence signal was indicated by its relative difference. The signal of background area without the expression of the sensor was first subtracted from the fluorescence signal, so as to obtain the real expression of the intensity of the fluorescent protein. […]

[2] = system: human acetylcholine receptor M3R subtype; test: GRAB-ACh 1.0 in acute mouse hippocampus brain slices, local perfusion, two-photon imaging; type: cell-based, mice; conditions: GRAB-ACh 1.0 expressing cells in brain slices
Excerpt: The DNA encoding GRAB-ACh 1.0 sensor was packed in lentivirus and expressed in the hippocampal neurons of mice, and its fluorescence performance was detected by local perfusion of acetylcholine.

[3] = system: Gαq-mediated signal transduction pathway; test: TGFα release in Gαq stable cell lines; type: cell-based
Excerpt: The coupling of GRAB-ACh4.0 and downstream Gαq was detected. First, three stable cell lines were constructed based on the Gαq cell line: M3R (marked as CHRM3 in FIG. 51), GRAB-ACh4.0, and blank (marked as Gq in FIG. 51) cell lines; then, the release of TGFα was used to characterize the extent to which the Gαq protein was activated. […], causing the release of TGF-α with alkaline phosphatase even when there is no signal from Gαq. Therefore, TPA was added to cells as a positive control.

[4] = system: human acetylcholine receptor M3R subtype; test: GRAB-ACh sensor fluorescence response to ACh, drug perfusion in HEK293T cells; type: cell-based; conditions: GRAB-ACh 1.0 in cells, blocking agent mixed with ACh
Description: as §1
The detection of the response of the GRAB sensor to the ligand (ΔF/F0) was performed using a drug perfusion method. The cells were placed in a standard physiological solution, and the formula thereof is: […]
The pH of the physiological solution was adjusted to about 7.4, and the small molecule drug was diluted with a part of the physiological solution to formulate solutions of respective concentrations of the small molecule ligand. […] Unless explicitly specified, the concentration of isoproterenol (ISO) for perfusion was 2 μM, and the concentration of acetylcholine for perfusion was 100 μM.
The perfusion system was equipped on a microscope, including a solution-introduced system made of syringe for injection, a multi-way valve, an imaging workbench and a suction pump. During the perfusion process, the imaging workbench was placed above the objective lens of the inverted microscope, and then the slide on which cell plated were placed in the workbench. Perfusion of different drugs were performed by controlling the switches of different pipes. In order to control the level of the solution in the workbench, the perfusion speed was set to one drop or so per second. After each drug treatment, the cells were washed with a physiological solution for more than five minutes to ensure that there were no residual drugs that will affect subsequent experiments. After the end of each experiment, the perfusion pipe and the workbench were cleaned with 75% ethanol three times to ensure that the residual drugs and impurities were fully washed away.
Fluorescence imaging data was processed using ImageJ software. For the performance of GRAB sensors in HEK293T cells and neurons, the fluorescence of entire cell body was selected as the data processing region. For living Drosophila imaging, fluorescence images on the same Z axis were analyzed by ImageJ software. The change in the fluorescence signal was indicated by its relative difference. The signal of background area without the expression of the sensor was first subtracted from the fluorescence signal, so as to obtain the real expression of the intensity of the fluorescent protein. Then, by calculating the fluorescence value F after adding the drug and the average fluorescence value F0 before adding, the relative fluorescence change ΔF/F=(F−F0)/F0 was obtained as the fluorescence response of the sensor to a specific drug. The change of ΔF/F0 with time was further plotted by Origin 8.6 software.
Based on GRAB-ACh 1.0, this peptide linker was optimized. First, based on a flexible amino acid (glycine, alanine), the peptide segment was screened for optimal length. The specific strategy was to change the length of the peptide linkers at the N-terminus and C-terminus from 0 to 5 amino acids, respectively, and to randomly combine the N-terminus with C-terminus to obtain all possible permutations. Fusion protein expression vectors containing various arrangements were expressed in HEK293T cells and subjected to perfusion experiments.

[5] = system: human acetylcholine receptor M3R subtype; test: GRAB-ACh 1.0 in cultured rat cortical neurons, perfusion; type: cell-based
Description: Newborn Sprague-Dawley rats were used for the primary culture of rat neurons. After the skin of rat was cleaned with alcohol, the head was dissected with surgical instruments, the brain was removed out and the vascular membrane on the surface of the cortex was carefully removed. The cortical tissue was cut into pieces and placed in a 0.25% trypsin solution, and digested for 10 minutes in an incubator at 37° C. After the digestion, the digestion was terminated with DMEM medium containing 5% FBS, and the cells were further isolated by slowly pipetting up and down ten times with a pipette. After standing for 5 minutes, the pellet containing the tissue debris was discarded and the upper layer solution was collected and centrifuged at 1,000 rpm for 5 minutes in a centrifuge. Thereafter, the supernatant was discarded and the neurons were resuspended with the Neurobasal+B27 medium which was used for culturing the neurons. The cell density was calculated using a cell counting chamber. After that, the cells were diluted at a density of 0.5-1×10^6 cells/ml and plated on the slides coated with poly-lysine (purchased from Sigma). […]
The optical response of neurons expressing the neurotransmitter sensor was observed by perfusion with a neurotransmitter solution. The neurotransmitter-specific optical signals were recorded, which were fast and stable, and have good repeatability in different neurons. […]

[6] = system: human DRD2 receptor; test: GRAB-GDA3.0 fluorescence response in HEK293T cells, drug perfusion; type: cell-based; conditions: saturated concentration of dopamine, HEK293T cells
Excerpt: There are 5 subtypes of human dopamine receptors in the body, which are named DRD1-DRD5. For constructing a fluorescent sensor, the receptors were screened preliminarily by inserting a fluorescent protein at any position in the third intracellular loop of the receptor. […] Specifically, for the third intracellular loop of the human DRD2 receptor, the insertion sites were set every 15 amino acids. Human DRD2 receptors inserted with circular permutated fluorescent proteins at different positions were expressed in HEK293T cells, and drug perfusion experiments were conducted with dopamine. […] After the positions sensitive to conformational change were determined, the surrounding amino acid sites thereof were further screened. The sites surrounding the amino acid position 252 at N-terminus and the sites surrounding the amino acid position 357 at the C-terminus were combined and different sensors were constructed. The sensors were expressed in HEK293T cells and subjected to drug perfusion experiments with dopamine. […] The peptide linkers were GG at the N-terminus and GGAAA at the C-terminus.

[7] = system: GRAB-GDA3.0 signal in mushroom body (MB); test: Odor-stimulated GRAB-GDA3.0 signal in mushroom body, in vivo two-photon imaging; parameters: species or system Drosophila
Description: Drosophila were kept in a 25-degree incubator with a standard medium. […] The adult Drosophila to be tested were transferred to a new culture tube within 0-2 days after emergence, and left at room temperature for 8-12 days. Before the imaging, the Drosophila were first fixed in a small dish, and then the square skull part near the eye was surgically removed to expose part of the brain. The adipose tissue and air sacs near the antennal lobes to be imaged were surgically removed to prevent interference with the fluorescent signal. In order to further reduce the degradation of image quality caused by the movement of Drosophila during the imaging, surgical forceps were used to cut the muscles underneath its halter. Throughout the dissection and imaging procedures, the brain of Drosophila was kept in a pre-chilled physiological solution, and the formula thereof is as follows: […]
Drosophila imaging was performed using an Olympus two-photon microscope, including Olympus BX61 WI microscope, 25×NA: 1.05 water lens, and Ti:Sapphire laser mode-locked laser for two-photon excitation. For GRAB sensor imaging experiments, the wavelength of the […] was set to 950 nm in order to successfully excite the fluorescent protein to produce fluorescence. The odor molecule isoamyl acetate (IA) used for stimulating Drosophila was purchased from Sigma, and was diluted in mineral oil at a ratio of 1:100. In the experiment, the isoamyl acetate was further diluted 5-40 times by mixing with air. The air mixed with odor molecules was provided at a position about 1 cm away from the tentacles of the Drosophila through a cavity about 1 cm wide on the experimental table. The odor molecule of different concentrations was tested by controlling the airflow. Each imaging cycle was 17.8 seconds, of which 5 to 10 seconds was the time for providing specific odor molecules. After the imaging experiment for odor function, the imaging area was scanned layer by layer with high resolution setting to obtain the distribution information of the olfactory bulb, which was later identified based on the information of olfactory bulb distribution at the antennal lobe reported in the literature.
The transgenic Drosophila UAS-GRAB-GDA3.0 was constructed to express the GRAB-GDA3.0 sensor in specific cells, driven by the corresponding GAL4 strain. First, GRAB-GDA3.0 was expressed in dopaminergic neurons (DAN) in all Drosophila, and the response induced by odor (isoamyl acetate) was examined by in vivo two-photon imaging (FIG. 39A).
A pharmacological study was performed on GRAB-GDA3.0.
The rate of GDA signal attenuation between normal Drosophila and Drosophila with reduced DAT expression was compared (this is the experiment of gene level research using DAT-RNAi described later). In DAN, the dopamine transporter (DAT) is located in the presynaptic membrane and […] DA intermittently and cyclically from the synapse. DAT-RNAi was used to inhibit DAT expression in DAN (FIG. 40G).

[8] = biological target: GRAB-Oxt-Cter580 sensor (human); test: cell-based or functional assay
Chain of GRAB-Oxt-Cter580 sensor (human) (chain, as listed by the source limits assumed): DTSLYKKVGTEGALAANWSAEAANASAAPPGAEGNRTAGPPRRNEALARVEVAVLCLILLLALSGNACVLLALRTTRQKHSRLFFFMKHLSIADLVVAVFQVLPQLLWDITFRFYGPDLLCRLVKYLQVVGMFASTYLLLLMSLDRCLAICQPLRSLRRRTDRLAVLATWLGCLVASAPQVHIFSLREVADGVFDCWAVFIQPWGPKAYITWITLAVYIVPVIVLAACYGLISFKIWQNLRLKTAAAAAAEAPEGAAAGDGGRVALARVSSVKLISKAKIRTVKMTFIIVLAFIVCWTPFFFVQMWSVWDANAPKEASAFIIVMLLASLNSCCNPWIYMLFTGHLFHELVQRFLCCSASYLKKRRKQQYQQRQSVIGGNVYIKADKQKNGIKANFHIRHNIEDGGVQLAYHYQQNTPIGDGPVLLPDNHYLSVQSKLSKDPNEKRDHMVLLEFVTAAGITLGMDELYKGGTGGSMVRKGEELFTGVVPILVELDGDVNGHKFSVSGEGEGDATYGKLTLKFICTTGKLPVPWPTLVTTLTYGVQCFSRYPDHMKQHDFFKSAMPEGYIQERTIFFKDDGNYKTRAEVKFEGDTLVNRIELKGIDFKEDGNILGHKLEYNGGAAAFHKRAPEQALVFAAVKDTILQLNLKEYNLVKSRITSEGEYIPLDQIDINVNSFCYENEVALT

Chain of GRAB-GDA3.0 signal in mushroom body (MB) (as listed by the source): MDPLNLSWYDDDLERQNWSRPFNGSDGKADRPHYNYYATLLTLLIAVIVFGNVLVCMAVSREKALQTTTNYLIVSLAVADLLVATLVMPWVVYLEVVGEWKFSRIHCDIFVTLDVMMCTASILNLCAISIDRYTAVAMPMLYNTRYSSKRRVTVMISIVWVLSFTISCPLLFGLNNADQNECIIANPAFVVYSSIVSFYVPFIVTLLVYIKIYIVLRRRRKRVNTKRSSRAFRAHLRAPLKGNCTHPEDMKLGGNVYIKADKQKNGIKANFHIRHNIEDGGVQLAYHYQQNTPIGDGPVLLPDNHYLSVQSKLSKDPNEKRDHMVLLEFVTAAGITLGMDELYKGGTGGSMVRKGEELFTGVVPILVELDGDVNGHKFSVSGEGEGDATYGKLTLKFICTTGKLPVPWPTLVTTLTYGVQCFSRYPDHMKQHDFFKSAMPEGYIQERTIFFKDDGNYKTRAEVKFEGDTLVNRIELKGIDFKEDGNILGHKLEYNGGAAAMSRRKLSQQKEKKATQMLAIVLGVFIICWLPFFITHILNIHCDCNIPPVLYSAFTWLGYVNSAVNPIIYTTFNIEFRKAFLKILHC
Chain of human DRD2 receptor (as listed by the source): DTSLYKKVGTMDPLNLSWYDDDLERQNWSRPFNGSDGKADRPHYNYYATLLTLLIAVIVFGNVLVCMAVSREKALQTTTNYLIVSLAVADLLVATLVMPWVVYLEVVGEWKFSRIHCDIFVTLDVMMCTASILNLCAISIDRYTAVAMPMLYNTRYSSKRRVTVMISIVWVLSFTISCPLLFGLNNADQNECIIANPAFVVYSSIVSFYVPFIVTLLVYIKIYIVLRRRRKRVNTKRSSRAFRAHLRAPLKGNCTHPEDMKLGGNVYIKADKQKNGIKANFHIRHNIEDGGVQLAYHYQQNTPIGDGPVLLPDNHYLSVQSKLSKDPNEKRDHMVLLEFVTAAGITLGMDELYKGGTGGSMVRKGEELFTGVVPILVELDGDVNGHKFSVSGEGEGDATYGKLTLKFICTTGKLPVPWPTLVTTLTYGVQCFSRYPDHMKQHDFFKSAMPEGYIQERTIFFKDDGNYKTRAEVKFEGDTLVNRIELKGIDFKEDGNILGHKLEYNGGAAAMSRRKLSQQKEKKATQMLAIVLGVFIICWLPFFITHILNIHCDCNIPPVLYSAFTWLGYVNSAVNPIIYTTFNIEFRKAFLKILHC

With Cc1ccc(OCC(O)C(C)NC(C)C)c2c1CCC2 (stereo not shown) [ICI] the “effect of blocking agent on agonist (ISO)-induced fluorescence increase” value [1] was “specifically blocked”.
C[N+](C)(C)CC#CCN1CCCC1=O [Oxo-M] was tested, and the “fluorescence response to agonist” value [2] was “respond to; also recorded: obvious fluorescence enhancement”.
C[N+]1(C)[C@@H]2C[C@@H](OC(=O)C(O)(c3cccs3)c3cccs3)C[C@H]1[C@@H]1O[C@@H]12 [Tio, Tiotropium bromide] was tested, and the “effect of antagonist on downstream signal induced by M3R” value ([3]; ACh) was “completely block”, the “effect of blocking agent on ligand (Ach)-induced fluorescence increase” value [4] was “specifically blocked” and the “effect of receptor blocker on response to acetylcholine” value [5] was “can block”.
For “GRAB-GDA3.0: human DRD2 receptor, positions 254 to 360 truncated, cpEGFP inserted, linkers GG-GGAAA, SEQ ID NO: 26”, the signal change [6] was 110%, the “decay τ of odor-induced GDA signal” value ([7]; DAT-RNAi Drosophila) was 1.85 s and the “decay τ of odor-induced GDA signal” value ([7]; WT Drosophila) was 0.48 s.
Work on “Oxytocin (from UniProt P01178 20-28) (peptide)” yielded a change in fluorescence signal (ΔF/F0) of the sensor on perfusion with the agonist (% ΔF/F0 at 1 µM Oxytocin) [8] of 10.
In the case of “WT-M3R: natural M3 type acetylcholine receptor without cpEGFP insertion”, the “activation of Gαq-mediated signal transduction pathway” value ([3]; gradient concentrations of ACh) is reported as “activated the Gαq-mediated signal transduction pathway”.
